Experimental data: patent publication US20260014175A1, “PHARMACEUTICAL COMPOSITION FOR ORAL ADMINISTRATION OF CANNABINOIDS” (EM[…]., priority 2022, published 2026)

Test: Compatibility of CBD / CBD-containing SNEDDS with excipients (CBD release in SGF, SIF, FaSSIF)
Type: physicochemical
Protocol: A number of different compositions were prepared and tested in order to determine the compatibility of CBD and/or CBD-containing self-nanoemulsifying drug delivery systems (SNEDDS) with various excipients.
In the case of `O=C([O-])CN(CCN(CC(=O)[O-])CC(=O)O)CC(=O)O.[Na+].[Na+]` [EDTA sodium], the “compatibility with CBD/CBD-containing SNEDDS” value is reported as “no signs of incompatibility”. In the case of `NCC(=O)O` [Glycine], the “compatibility with CBD/CBD-containing SNEDDS” value is reported as “no signs of incompatibility”. For `CCCCCCCCCCCCOS(=O)(=O)[O-].[Na+]` [Sodium lauryl sulfate (SLS), Sodium lauryl sulfate], the “compatibility with CBD/CBD-containing SNEDDS” value was “no signs of incompatibility”.
